Source: patent US12171229B2, “Heteroaryl-triazole and heteroaryl-tetrazole compounds as pesticides” (BAYER AKTIENGESELLSCHAFT, priority 2018, dated 2024)

Legend:
Format in all cases: in vivo
Diabrotica balteata = Diabrotica balteata spray test; conditions: Diabrotica balteata, in Triticum aestivum, 168 h, after 7 days, larvae on wheat seeds, read-out: efficacy (seedlings grown up); for pest or weed control at 160 µg/disc, 500 g/ha: 160 μg/well (=500 g/ha); for pest or weed control at 80 µg/disc, 250 g/ha: 80 μg/well (=250 g/ha)
Procedure: Diabrotica balteata—Spray Test [table] To produce a suitable preparation of active compound, 1 part by weight of active compound is mixed with the stated amount of solvent, and the concentrate is diluted with water, containing an emulsifier concentration of 1000 ppm, to the desired concentration. Further test concentrations are prepared by dilution with emulsifier containing water. Soaked wheat seeds (Triticum aestivum) are placed in a multiple well plate filled with agar and some water and are incubated for 1 day to germinate (5 seeds per well). The germinated wheat seeds are sprayed with a test solution containing the desired concentration of the active ingredient. Afterwards each unit is infected with 10-20 larvae of the banded cucumber beetle (Diabrotica balteata). After 7 days efficacy in % is determined. 100% means all the seedlings have grown up like in the untreated, uninfected control; 0% means none of the seedlings have grown.

Spodoptera frugiperda = Spodoptera frugiperda spray test; conditions: 168 h, after 7 days, larvae on maize leaf sections
Procedure: Spodoptera frugiperda—Spray Test
(§1) To produce a suitable preparation of active compound, 1 part by weight of active compound is mixed with the stated amount of solvents and is diluted with water, containing an emulsifier concentration of 1000 ppm, to the desired concentration. Further test concentrations are prepared by dilution with emulsifier containing water.
Maize (Zea mays) leaf sections are sprayed with a preparation of the active ingredient of the desired concentration. Once dry, the leaf sections are infested with fall armyworm larvae (Spodoptera frugiperda).
After 7 days mortality in % is determined. 100% means all caterpillars have been killed and 0% means none of the caterpillars have been killed.

Nezara viridula = Nezara viridula spray test; conditions: 96 h, after 4 days, larvae on barley plants
Procedure: Nezara viridula—Spray Test
as §1, with “solvent,” for “solvents”, “and the concentrate” for “and”
Barley plants (Hordeum vulgare) infested with larvae of the southern green stink bug (Nezara viridula) are sprayed with a test solution containing the desired concentration of the active ingredient.
After 4 days mortality in % is determined. 100% means all the stink bugs have been killed: 0% means none of the stink bugs have been killed.

Myzus persicae [1] = experiment: Myzus persicae oral test; conditions: 120 h, 4 ppm, after 5 days
Procedure: Solvent: 100 parts by weight acetone
To produce a suitable preparation of active compound, 1 part by weight of active compound is mixed with the stated amount of solvent, and the concentrate is diluted with water to the desired concentration.
50 μl compound solution is filled in microtiter plates and 150 μl IPL41 insect medium (33%+15% sugar) is added to obtain a total volume of 200 μl per well. Afterwards the plates are sealed with parafilm through which a mixed population of the green peach aphid (Myzus persicae) can suck on the compound preparation.
(§2) After 5 days mortality in % is determined. 100% means all aphids have been killed and 0% means none of the aphids have been killed.

Boophilus microplus = Boophilus microplus injection test; conditions: Rhipicephalus microplus, 168 h; 20 μg/animal injected into the abdomen; adult engorged female ticks; egg deposition after 7 days; read-out: efficacy (infertile eggs)
Procedure: Boophilus Microplus—Injection Test Solvent: dimethyl sulfoxide To produce a suitable preparation of active compound, 10 mg of active compound are dissolved in 0.5 ml solvent, and the concentrate is diluted with solvent to the desired concentration. Five adult engorged female ticks (Boophilus microplus) are injected with 1 μl compound solution into the abdomen. The ticks are transferred into replica plates and incubated in a climate chamber. After 7 days egg deposition of fertile eggs is monitored. Eggs where fertility is not visible are stored in a climate chamber till hatching after about 42 days. An efficacy of 100% means all eggs are infertile; 0% means all eggs are fertile.

Ctenocephalides felis = Ctenocephalides felis oral test; conditions: 48 h, 100 ppm in cattle blood, after 2 days, adult unfed cat fleas
Procedure: Ctenocephalides Felis—Oral Test
Solvent: dimethyl sulfoxide
To produce a suitable preparation of active compound, 10 mg of active compound are dissolved in 0.5 ml solvent, and the concentrate is diluted with cattle blood to the desired concentration.
Approximately 20 adult unfed cat fleas (Ctenocephalides felis) are placed in flea chambers. The blood chamber, sealed with parafilm on the bottom, are filled with cattle blood supplied with compound solution and placed on the gauze covered top of the flea chamber, so that the fleas are able to suck the blood. The blood chamber is heated to 37° C. whereas the flea chamber is kept at room temperature.
After 2 days mortality in % is determined. 100% means all the fleas have been killed; 0% means none of the fleas have been killed.

Myzus persicae [2] = experiment: Myzus persicae spray test; conditions: foliar, 120 h, after 5 days, Chinese cabbage leaf disks
Procedure: Myzus persicae—Spray Test
as §1
Chinese cabbage (Brassica pekinensis) leaf disks infected with all instars of the green peach aphid (Myzus persicae), are sprayed with a preparation of the active ingredient of the desired concentration.
as §2

Row | Structure (SMILES) | pest or weed control at 160 µg/disc, 500 g/ha (Diabrotica balteata) | mortality at 500 g/ha (Spodoptera frugiperda) | mortality at 100 g/ha (Nezara viridula; 100 g/ha) | mortality at 500 g/ha (Nezara viridula) | mortality at 4 ppm (Myzus persicae [1]) | pest or weed control at 80 µg/disc, 250 g/ha (Diabrotica balteata) | pest or weed control at 0.02 mg (Boophilus microplus) | mortality at 100 g/ha (Spodoptera frugiperda) | mortality at 100 ppm (Ctenocephalides felis) | mortality at 100 g/ha (Myzus persicae [2]; 100 g/ha) | mortality at 500 g/ha (Myzus persicae [2]; 500 g/ha)
1 | C[C@H](NC(=O)c1cc(Cl)cc(C(F)(F)F)c1)c1ncnn1-c1ccc(C(=O)NC2(C#N)CC2)cn1 [Example I-112] | 100% | 83% | 100% | 100% | 90% |  |  |  |  |  | 
2 | C[C@H](NC(=O)c1cc(Cl)cc(C(F)(F)F)c1)c1ncnn1-c1ccc(S(C)(=O)=O)cn1 [Example I-062] | 100% | 100% |  | 100% |  | 100% | 100% | 100% | 100% |  | 
3 | C[C@H](NC(=O)c1cc(Cl)cc(C(F)(F)F)c1)c1ncnn1-c1ccc(C(=O)N(C)C2CC2)cn1 [Example I-110, 6-(5-{(1S)-1-[3-chloro-5-(trifluoromethyl)benzamido]ethyl}-1H-1,2,4-triazol-1-yl)-N-cyclopropyl-N-methylnicotinamide] | 100% | 100% |  | 90% |  |  |  | 100% |  | 90% | 100%
4 | Cc1cc(C(=O)N[C@@H](C)c2ncnn2-c2ccc(C#N)cn2)cc(C(F)(F)F)c1 [Example I-040] | 100% | 100% |  |  | 100% | 100% | 100% | 100% | 100% |  | 
5 | C[C@H](NC(=O)c1cc(Cl)cc(C(F)(F)F)c1)c1ncnn1-c1ccc(-n2ccc(C(F)(F)F)n2)cn1 [Example I-045, 3-chloro-5-(trifluoromethyl)-N-[(1S)-1-(1-{5-[3-(trifluoromethyl)-1H-pyrazol-1-yl]pyridin-2-yl}-1H-1,2,4-triazol-5-yl)ethyl]benzamide] | 80% | 100% |  |  |  | 100% | 100% | 100% | 95% |  | 
6 | C[C@H](NC(=O)c1cc(Cl)cc(C(F)(F)F)c1)c1ncnn1-c1ccc(NC(=O)C(F)(F)F)cn1 [Example I-072] | 100% | 100% |  |  | 90% | 100% |  | 83% |  |  | 
7 | C[C@H](NC(=O)c1cc(Cl)cc(OC(F)(F)F)c1)c1ncnn1-c1ccc(N)cn1 [Example I-101] | 100% | 100% |  | 100% | 100% | 100% |  |  |  |  | 
